# Experimental data reported in article PMC6669322, “Small Molecule Binding to Alzheimer Risk Factor CD33 Promotes Aβ Phagocytosis” (iScience, 2019).
# Molecular target: CD33 R119A (Homo sapiens, UniProt P20138, R119A)
# Assay: SNAP-tag homogeneous time-resolved fluorescence binding assay, CD33 R119A
# Set-up: human CD33 ORF (NM_001772.3), lacking its signal peptide; expressed in transfected cells; host or cells: HEK293T, transient, pT8-SNAP vector
# Conditions: binding affinity, R119A vs WT
# Description: Figure 3 P22 Binding to CD33 Wild-Type and Mutants (A) An example of affinity analysis for 1–243 μM (3-fold dilutions) of P22 binding to immobilized CD33^C36S. Data obtained in duplicate using single-cycle analysis and fit to a steady-state binding model to determine the equilibrium binding constant. (B) An example of affinity analysis of P22 binding to immobilized CD33 wild-type (WT) as per example in (A). (C) Sensorgram data for 0.01–9 μM (3-fold dilutions) of CD33^C36S binding to immobilized P22. Data obtained in triplicate using single concentration cycles and fit to a 1:1 binding model for kinetic analysis. […]
# We then used our structural data to design mutations of key residues interacting with P22 to assess which interactions were the most important for binding affinity. The residues were mutated into alanine, and the effect of these mutations on P22 binding affinity was assessed using a SNAP-tag homogeneous time-resolved fluorescence binding assay (see Transparent Methods and Figures 3E–3G). […]
# HEK293T cells were cultured in DMEM (ThermoFisher Scientific # 11965092) containing 10% FBS (Hyclone # SH30070.03) and 1% Penicillin-Streptomycin (ThermoFisher Scientific # 15140122) and transfected using Fugene HD (Promega # E2312) in 10 cm plates. […] The cells were counted, centrifuged and resuspended in PBS at a concentration of 1,000 cells/μL and 10 μL were plated into each well. […]
# Chain of CD33 R119A (P20138 18-364 R119A): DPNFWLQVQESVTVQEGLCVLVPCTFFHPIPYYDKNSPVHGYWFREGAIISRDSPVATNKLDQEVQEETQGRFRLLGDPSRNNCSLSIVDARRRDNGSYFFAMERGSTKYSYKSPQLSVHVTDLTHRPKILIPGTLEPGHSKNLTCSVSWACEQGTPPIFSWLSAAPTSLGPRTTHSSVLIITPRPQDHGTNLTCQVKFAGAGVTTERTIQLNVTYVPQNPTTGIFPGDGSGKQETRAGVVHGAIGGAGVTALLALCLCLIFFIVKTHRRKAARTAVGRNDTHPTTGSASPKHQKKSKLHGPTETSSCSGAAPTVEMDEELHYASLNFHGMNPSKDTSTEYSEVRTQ
smiles,measurement,value
"Cc1cc(C(=O)NC[C@@H](O)[C@@H](O)[C@@H]2O[C@@](OC[C@H]3O[C@@H](O[C@H]4[C@H](O)[C@@H](O)[C@H](OCCN)O[C@@H]4CO)[C@H](O)[C@@H](O)[C@H]3O)(C(=O)O)C[C@H](O)[C@H]2NC(=O)Cn2cc(C3CCCCC3)nn2)cc(C)c1O [P22, β-D-Glucopyranoside, 2-aminoethyl O-[N-[2-(4-cyclohexyl-1H-1,2,3-triazol-1-yl)acetyl]-9-deoxy-9-[(4-hydroxy-3,5-dimethylbenzoyl)amino]-α-neuraminosyl] (2→6)-O-β-D-galactopyranosyl-(1→4)-]",Fold-decrease compared to WT,> 30 fold
